{
  "source": "BindingDB's records for doi:10.1016/j.chembiol.2006.05.008",
  "about": "(Gpc Biotech, 2006)",
  "biological_target": "Cyclin-dependent kinase 2 (Homo sapiens, UniProt P24941)",
  "test": "Enzymatic Assay",
  "procedure": "CAII assays were performed at CEREP (paris). All other kinase assays were performed at Upstate (Dundee, UK).",
  "data": [
    {"smiles": "CC(C)c1nn(-c2c(Cl)cc(Cl)cc2Cl)c2nc(Cc3ccc(OC(C)(C)C(=O)O)cc3)[nH]c(=O)c12", "note": "[RGB-285961]", "values": [
      {"measurement": "EC50", "result": 70, "unit": "nM"},
      {"measurement": "IC50", "result": 20, "unit": "nM"}
    ]}
  ]
}
